In patent publication US8168651B2, “Protein kinase modulators” (Cylene Pharmaceuticals, Inc., priority 2008, dated 2012):
Where two headings read alike, the source gives them in different places.

Key:
[1] = tested on: HCT-116 human colorectal carcinoma cells; assay: Cell-proliferation assay using Alamar Blue dye; type: cell-based; settings: Homo sapiens;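 note: cells exposed to compound for about 4 days, then Alamar Blue added and dye fluorescence read after about 4 h, compared with medium-only control wells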
recombinant human PIM1 = recombinant human PIM1 (Homo sapiens (Human), UniProt P11309); assay: PIM-1 kinase activity in cell-free in vitro assay; type: biochemical; settings: for inhibition at 0.5 µM: 500 nM compound, read-out: PIM-1: % inh 500 nM
Jurkat = assay: Cell proliferation modulatory activity, Jurkat; type: cell-based; settings: Homo sapiens
K-562 [2] = assay: Cell proliferation modulatory activity, K-562; type: cell-based; settings: Homo sapiens, K562
MV-4-11 [3] = assay: Cell proliferation modulatory activity, MV-4-11; type: cell-based; settings: Homo sapiens, MV4-11
[4] = tested on: MiaPaca human pancreatic carcinoma cells; assay: Cell-proliferation assay using Alamar Blue dye; type: cell-based; settings: MIA PaCa-2, Table 45
Experimental: A representative cell-proliferation assay protocol using Alamar Blue dye (stored at 4° C., use 20 ul per well) is described hereafter.
• a. Split and trypsinize cells. • b. Count cells using hemocytometer. • c. Plate 4,000-5,000 cells per well in 100 μl of medium and seed into a 96-well plate according to the following plate layout. Add cell culture medium only to wells B10 to B12. Wells B1 to B9 have cells but no compound added.
• d. Add 100 μl of 2× drug dilution to each well in a concentration shown in the plate layout above. At the same time, add 100 μl of media into the control wells (wells B10 to B12). Total volume is 200 μl/well. • e. Incubate four (4) days at 37° C., 5% CO2 in a humidified incubator. • f. Add 20 μl Alamar Blue reagent to each well. • g. Incubate for four (4) hours at 37° C., 5% CO2 in a humidified incubator. • h. Record fluorescence at an excitation wavelength of 544 nm and emission wavelength of 590 nm using a microplate reader.
In the assays, cells are cultured with a test compound for approximately four days, the dye then is added to the cells and fluorescence of […] dye is detected after approximately four hours. Different types of cells can be utilized in the assays (e.g., HCT-116 human colorectal carcinoma cells, PC-3 human prostatic cancer cells and MiaPaca human pancreatic carcinoma cells). Anti-proliferative effects of representative compounds are provided hereafter

K-562 [5] = assay: Cell proliferation modulatory activity, K-562; type: cell-based; settings: Homo sapiens, K562; Table 45; read-out: K-562 IC50
MV-4-11 [6] = assay: Cell proliferation modulatory activity, MV-4-11; type: cell-based; settings: Homo sapiens, MV4-11; Table 45; read-out: MV-4-11 IC50
PIM2 = PIM2 (Homo sapiens (Human), UniProt Q9P1W9); assay: PIM2 IC50; type: biochemical; settings: Table 45
phosphoBAD ser 112 = phosphoBAD ser 112 IC50; type: cell-based; settings: read-out: phosphoBAD ser 112 IC50; Table 45
MDAMB231 = MDAMB231 IC50; type: cell-based; settings: Homo sapiens, MDA-MB-231; Table 45
[7] = HCT-116, read-out: HCT-116 (uM), cell proliferation modulatory activity, HCT-116, second column

recombinant human PIM1, sequence (P11309 whole entry): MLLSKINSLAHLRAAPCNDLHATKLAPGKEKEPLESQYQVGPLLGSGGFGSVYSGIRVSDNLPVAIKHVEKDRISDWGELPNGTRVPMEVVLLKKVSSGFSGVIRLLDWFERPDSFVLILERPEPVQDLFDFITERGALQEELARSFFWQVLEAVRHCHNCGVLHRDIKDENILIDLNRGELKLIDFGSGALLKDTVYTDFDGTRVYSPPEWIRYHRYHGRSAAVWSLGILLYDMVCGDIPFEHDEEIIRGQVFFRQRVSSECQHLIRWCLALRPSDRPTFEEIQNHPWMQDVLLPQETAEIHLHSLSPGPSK
PIM2, sequence (Q9P1W9 whole entry): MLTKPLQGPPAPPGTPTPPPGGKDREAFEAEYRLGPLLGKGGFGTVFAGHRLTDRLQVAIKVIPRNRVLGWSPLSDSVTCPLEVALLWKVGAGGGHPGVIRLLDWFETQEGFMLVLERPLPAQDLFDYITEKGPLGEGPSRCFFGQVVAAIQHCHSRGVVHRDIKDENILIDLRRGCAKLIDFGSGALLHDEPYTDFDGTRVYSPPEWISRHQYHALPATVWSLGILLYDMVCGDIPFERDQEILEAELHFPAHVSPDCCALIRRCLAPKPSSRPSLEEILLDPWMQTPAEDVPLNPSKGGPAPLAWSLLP

inhibition at 0.5 µM (recombinant human PIM1; cell-free) [%]	IC50 (Jurkat) [µM]	IC50 [4] [µM]	IC50 (recombinant human PIM1; Table 45) [µM]	IC50 (K-562 [5]) [µM]	IC50 (MV-4-11 [6]) [µM]	IC50 (PIM2) [µM]	IC50 (phosphoBAD ser 112) [µM]	IC50 (MDAMB231) [µM]	SMILES	also measured
10.2	4.25								COC(=O)c1ccc2c(c1)nc(Nc1ccc(F)c(Cl)c1)c1ccncc12	IC50 [1, 7]: 3.94 µM
19.4	3.4								COC(=O)c1ccc2c(c1)nc(Nc1cccc(OC)c1)c1ccncc12	
96.1	3.2								O=C(O)c1ccc2c(c1)nc(Nc1cccc(F)c1)c1ccncc12	IC50 (recombinant human PIM1; cell-free): 0.143 µM; IC50 (K-562 [2]): > 10 µM; IC50 (MV-4-11 [3]): 2.28 µM
45	9.43								Fc1cccc(Nc2nc3cc(-c4nnn[nH]4)ccc3c3cnccc23)c1	
		< 0.5	< 0.1	> 10	< 0.1	< 0.5	< 5	> 10	Cc1cc(Nc2nc3c(-c4nnc[nH]4)cccc3c3cnccc23)ccc1F	
		< 5	< 0.1	> 10	< 0.1	< 0.5	< 5	< 1	Fc1ccc(Nc2nc3c(-c4nc[nH]n4)cccc3c3cnccc23)cc1F	
		< 5	< 0.1	< 5	< 0.1	< 0.5	< 1	< 5	Fc1ccc(Nc2nc3c(-c4nnc[nH]4)cccc3c3cnccc23)cc1Cl	
		< 0.5	< 0.1	< 5	< 0.1	> 1.1	< 0.5	< 1	Fc1cc(Cl)cc(Nc2nc3c(-c4nnc[nH]4)cccc3c3cnccc23)c1	
		> 10	< 0.1	> 10	< 0.5	< 0.5	< 1	< 10	c1ccc(CCNc2nc3c(-c4nc[nH]n4)cccc3c3cnccc23)cc1	
		< 1	< 0.1	< 5	< 0.5	< 0.5	< 1	> 10	Fc1cc(F)cc(Nc2nc3c(-c4nnc[nH]4)cccc3c3cnccc23)c1	
		> 10	< 0.1	> 10	< 0.5	< 0.5	< 1	> 10	NS(=O)(=O)c1cccc(Nc2nc3c(-c4nc[nH]n4)cccc3c3cnccc23)c1	
		< 10	< 0.1	< 5	< 0.5	< 0.5	< 5	> 10	COc1cc(Nc2nc3c(-c4nc[nH]n4)cccc3c3cnccc23)ccc1F	
		< 1	< 0.1	< 5	< 0.1	< 0.5	< 0.1	> 30	NC(=O)c1cccc2c1nc(Nc1ccc(F)cc1)c1ccncc12	
		> 10	< 0.1	> 10	< 0.5	< 0.1	< 0.1	> 10	FC(F)(F)Oc1ccccc1Nc1nc2c(-c3nnc[nH]3)cccc2c2cnccc12	

The next lines start with the compound.

SMILES	inhibition at 0.5 µM (recombinant human PIM1; cell-free) [%]	IC50 (Jurkat) [µM]	IC50 [4] [µM]	IC50 (recombinant human PIM1; Table 45) [µM]	IC50 (K-562 [5]) [µM]	IC50 (MV-4-11 [6]) [µM]	IC50 (PIM2) [µM]	IC50 (phosphoBAD ser 112) [µM]	IC50 (MDAMB231) [µM]	also measured
c1ccc(Nc2nc3cc(-c4nnc[nH]4)ccc3c3sccc23)cc1	-3.3	7.6								IC50 ([1]; HCT-116, HCT-116, second column, read-out: HCT-116 (uM), cell proliferation modulatory activity): 4.9 µM; IC50 (K-562 [2]): 6.26 µM
Clc1cccc(Nc2nc3cc(-c4nnn[nH]4)ccc3c3sccc23)c1	83.3	8.89								IC50 (recombinant human PIM1; cell-free): 0.345 µM
CNC(=O)c1cccc(Nc2nc3cc(-c4nnn[nH]4)ccc3c3sccc23)c1	81.7	4.22								IC50 [1, 7]: > 10 µM; IC50 (recombinant human PIM1; cell-free): 0.329 µM
COC(=O)c1ccc2c(c1)nc(Nc1ccccc1)c1ccncc12	-3.02	0.683								
O=C(O)c1ccc2c(c1)nc(Nc1ccc(F)c(Cl)c1)c1ncncc12	54.8	4.29								IC50 (recombinant human PIM1; cell-free): 0.368 µM
CNC(=O)c1cccc(Nc2nc3cc(C(=O)O)ccc3c3sccc23)c1	18.3	8.69								IC50 [1, 7]: > 10 µM
O=C(NC1CC1)c1cccc(Nc2nc3cc(-c4nnn[nH]4)ccc3c3sccc23)c1	46.8	6.97								IC50 [1, 7]: > 10 µM
O=C(O)c1ccc2c(c1)nc(Nc1cc(F)cc(F)c1)c1ncncc12	80	2.59								IC50 [1, 7]: 4.05 µM; IC50 (recombinant human PIM1; cell-free): > 1.1 µM; IC50 (K-562 [2]): 2.41 µM
O=C(O)c1ccc2c(c1)nc(Nc1cc(Cl)cc(Cl)c1)c1ccsc12	67.1	4.31								IC50 [1, 7]: 8.76 µM
CNc1ncc2c(n1)c(Nc1ccccc1)nc1cc(C(=O)O)ccc12	20.8	0.728								IC50 [1, 7]: 2.99 µM; IC50 (MV-4-11 [3]): > 10 µM
